Bounds are passed on as bounds.

The IC50 is the concentration needed to halve the response being measured. Low values mean greater potency in that assay, high ones weaker potency in that assay.

Chain of BRG-1 (P51532 whole entry): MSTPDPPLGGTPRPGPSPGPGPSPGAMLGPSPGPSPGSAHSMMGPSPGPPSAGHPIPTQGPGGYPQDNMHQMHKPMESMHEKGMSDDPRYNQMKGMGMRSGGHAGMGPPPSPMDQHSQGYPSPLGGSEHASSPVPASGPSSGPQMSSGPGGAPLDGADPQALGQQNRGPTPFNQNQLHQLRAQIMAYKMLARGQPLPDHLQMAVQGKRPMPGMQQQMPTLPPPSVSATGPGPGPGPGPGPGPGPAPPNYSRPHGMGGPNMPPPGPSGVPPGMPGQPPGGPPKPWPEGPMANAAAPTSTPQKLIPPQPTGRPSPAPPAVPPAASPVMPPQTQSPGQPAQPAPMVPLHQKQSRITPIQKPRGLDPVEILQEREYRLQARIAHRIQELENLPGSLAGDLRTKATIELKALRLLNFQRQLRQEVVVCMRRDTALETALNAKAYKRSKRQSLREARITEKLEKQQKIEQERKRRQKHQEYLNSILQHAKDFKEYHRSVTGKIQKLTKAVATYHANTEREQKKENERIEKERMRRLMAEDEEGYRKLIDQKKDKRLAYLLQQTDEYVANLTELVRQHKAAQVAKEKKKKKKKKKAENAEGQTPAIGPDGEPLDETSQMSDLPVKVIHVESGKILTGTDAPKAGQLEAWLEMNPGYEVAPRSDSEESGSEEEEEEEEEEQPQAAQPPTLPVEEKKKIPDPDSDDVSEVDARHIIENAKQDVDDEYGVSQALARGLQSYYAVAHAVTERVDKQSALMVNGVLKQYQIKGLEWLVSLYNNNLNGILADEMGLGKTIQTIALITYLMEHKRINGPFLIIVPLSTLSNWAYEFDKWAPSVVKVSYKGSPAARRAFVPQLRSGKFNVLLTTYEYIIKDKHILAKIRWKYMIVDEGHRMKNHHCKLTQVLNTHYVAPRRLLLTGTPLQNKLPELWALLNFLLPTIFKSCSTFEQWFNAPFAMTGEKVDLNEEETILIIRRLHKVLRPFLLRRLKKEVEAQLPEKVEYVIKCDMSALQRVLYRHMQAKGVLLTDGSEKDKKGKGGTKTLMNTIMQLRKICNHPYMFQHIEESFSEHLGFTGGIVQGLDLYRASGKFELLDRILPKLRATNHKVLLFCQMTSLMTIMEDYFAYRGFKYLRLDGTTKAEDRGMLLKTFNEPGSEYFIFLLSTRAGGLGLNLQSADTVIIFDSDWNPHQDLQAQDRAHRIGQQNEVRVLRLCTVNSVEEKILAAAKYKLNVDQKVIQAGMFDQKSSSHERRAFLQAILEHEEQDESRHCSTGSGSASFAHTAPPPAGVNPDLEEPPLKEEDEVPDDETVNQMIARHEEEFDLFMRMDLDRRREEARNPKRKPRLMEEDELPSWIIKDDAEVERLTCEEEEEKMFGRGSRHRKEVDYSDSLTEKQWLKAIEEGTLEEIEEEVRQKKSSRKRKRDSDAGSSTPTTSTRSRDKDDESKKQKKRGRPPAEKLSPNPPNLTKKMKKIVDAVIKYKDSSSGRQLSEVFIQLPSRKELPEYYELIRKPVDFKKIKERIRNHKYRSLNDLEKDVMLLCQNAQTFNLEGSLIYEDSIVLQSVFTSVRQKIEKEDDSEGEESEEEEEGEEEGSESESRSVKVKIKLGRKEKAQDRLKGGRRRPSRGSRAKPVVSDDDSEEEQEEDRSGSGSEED

One experiment addresses BRG-1 (Homo sapiens, UniProt P51532). The experiment in a line: ATPase catalytic activity assay (ADP-Glo), BRG-1.
Conditions: not given
The compound `CN(C)c1cccc(-c2ccc3cnc(CNC(=O)c4ccc5c(c4)[C@](C)(C#N)COC5)cc3n2)n1` [Compound 360] registered an IC50 of over 1000 nM.
Still for that read-out and setting: with `C[C@@]1(C#N)COCc2ccc(C(=O)NCc3cc4nc(-c5cccc(N6CCCC6=O)n5)ccc4cn3)cc21` [Compound 378] the figure was 100 to 500 nM.
In turn, `C[C@@]1(C#N)COCc2ccc(C(=O)NCc3cc4nc(-c5cncc(N6CC(F)(F)C6)n5)ccc4cn3)cc21` [Compound 404] showed a concentration for half-maximal inhibition (IC50) of 100 to 500 nM.
`C[C@@]1(C#N)COCc2ccc(C(=O)NCc3cc4c(nn3)CCN(c3cccc(N5CCC5)n3)C4)cc21` [Compound 234] registered a half-maximal inhibitory concentration (IC50) of 500 to 1000 nM.
Still for that read-out and setting: with `C[C@@]1(C#N)COCc2ccc(C(=O)NCc3cc4nc(N5CCCC5)ccc4cn3)cc21` [Compound 514] the figure was over 1000 nM; with `Cn1ncc2c(-c3ccc4cnc(CNC(=O)c5ccc6c(c5)[C@](C)(C#N)COC6)cc4n3)cccc21` [Compound 182], 100 to 500 nM.
On the same count and under the same terms, to `CN(C)C(=O)c1cccc(C#Cc2ccnc(CNC(=O)c3ccc4c(c3)[C@](C)(C#N)COC4)c2)c1` [Compound 84] belongs 500 to 1000 nM; to `CC1c2cc(CNC(=O)c3ccc4c(c3)[C@](C)(C#N)COC4)ncc2CCN1c1cncc(C2CC2)n1` (stereo partly shown) [Compound 209], 500 to 1000 nM.
Still for that read-out and setting: with `C[C@@]1(C#N)COCc2ccc(C(=O)NCc3cc4nc(-c5ccncc5)ccc4cn3)cc21` [Compound 451] the figure was 500 to 1000 nM.
With `C[C@@]1(C#N)COCc2ccc(C(=O)NCc3cc(N4CCC(c5ccccc5)C4)ccn3)cc21` (stereo partly shown) [Compound 44], the IC50 is over 1000 nM.
Still for that read-out and setting: to `C[C@@]1(C#N)COCc2ccc(C(=O)NCc3cc4nc(-n5cccc(C6CC6)c5=O)ccc4cn3)cc21` [Compound 282] belongs over 1000 nM; to `Cn1cc(F)c2c(-c3ccc4cnc(CNC(=O)c5ccc6c(c5)[C@](C)(C#N)COC6)cc4n3)cccc21` [Compound 138], 100 to 500 nM.
With `C[C@@]1(C#N)COCc2ncc(C(=O)NCc3cc4cc(-c5cncc(C6CC6)n5)ccc4cn3)cc21` [Compound 181], the IC50 was 100 to 500 nM.

Staying with this experiment, now noted: 1 h, read-out: BRG1 Max % Inhibition, ADP-Glo, 30 nM BRG-1, 400 μM ATP.
Turning to `CN(C)c1cccc(-c2ccc3cnc(CNC(=O)c4ccc5c(c4)[C@](C)(C#N)COC5)cc3n2)n1` [Compound 360], the Emax worked out at 99%.
The same measure, in the same setting: with `C[C@@]1(C#N)COCc2ccc(C(=O)NCc3cc4nc(-c5cccc(N6CCCC6=O)n5)ccc4cn3)cc21` [Compound 378] the figure was 99%; with `C[C@@]1(C#N)COCc2ccc(C(=O)NCc3cc4nc(-c5cncc(N6CC(F)(F)C6)n5)ccc4cn3)cc21` [Compound 404], 78%; with `C[C@@]1(C#N)COCc2ccc(C(=O)NCc3cc4c(nn3)CCN(c3cccc(N5CCC5)n3)C4)cc21` [Compound 234], 49%.
Still for that read-out and setting: with `C[C@@]1(C#N)COCc2ccc(C(=O)NCc3cc4nc(N5CCCC5)ccc4cn3)cc21` [Compound 514] the figure was 59%; with `Cn1ncc2c(-c3ccc4cnc(CNC(=O)c5ccc6c(c5)[C@](C)(C#N)COC6)cc4n3)cccc21` [Compound 182], 95%; with `CN(C)C(=O)c1cccc(C#Cc2ccnc(CNC(=O)c3ccc4c(c3)[C@](C)(C#N)COC4)c2)c1` [Compound 84], 53%.
Same read-out and setting: to `CC1c2cc(CNC(=O)c3ccc4c(c3)[C@](C)(C#N)COC4)ncc2CCN1c1cncc(C2CC2)n1` (stereo partly shown) [Compound 209] belongs 51%; to `C[C@@]1(C#N)COCc2ccc(C(=O)NCc3cc4nc(-c5ccncc5)ccc4cn3)cc21` [Compound 451], 58%.
Consider `C[C@@]1(C#N)COCc2ccc(C(=O)NCc3cc(N4CCC(c5ccccc5)C4)ccn3)cc21` (stereo partly shown) [Compound 44], for which the Emax turned out to be 69%.
For `C[C@@]1(C#N)COCc2ccc(C(=O)NCc3cc4nc(-n5cccc(C6CC6)c5=O)ccc4cn3)cc21` [Compound 282], the Emax was determined as 45%.
`Cn1cc(F)c2c(-c3ccc4cnc(CNC(=O)c5ccc6c(c5)[C@](C)(C#N)COC6)cc4n3)cccc21` [Compound 138]: the Emax was determined as 94%.
`C[C@@]1(C#N)COCc2ncc(C(=O)NCc3cc4cc(-c5cncc(C6CC6)n5)ccc4cn3)cc21` [Compound 181]: the Emax is 97%.

The target in another experiment is BRM (Homo sapiens, UniProt P51531). Briefly: ATPase catalytic activity assay (ADP-Glo), BRM. As to conditions: 30 nM BRM, 400 μM ATP. (ADP-Glo turns the ADP formed in a reaction into a luminescent signal.)
Chain of BRM (P51531 whole entry): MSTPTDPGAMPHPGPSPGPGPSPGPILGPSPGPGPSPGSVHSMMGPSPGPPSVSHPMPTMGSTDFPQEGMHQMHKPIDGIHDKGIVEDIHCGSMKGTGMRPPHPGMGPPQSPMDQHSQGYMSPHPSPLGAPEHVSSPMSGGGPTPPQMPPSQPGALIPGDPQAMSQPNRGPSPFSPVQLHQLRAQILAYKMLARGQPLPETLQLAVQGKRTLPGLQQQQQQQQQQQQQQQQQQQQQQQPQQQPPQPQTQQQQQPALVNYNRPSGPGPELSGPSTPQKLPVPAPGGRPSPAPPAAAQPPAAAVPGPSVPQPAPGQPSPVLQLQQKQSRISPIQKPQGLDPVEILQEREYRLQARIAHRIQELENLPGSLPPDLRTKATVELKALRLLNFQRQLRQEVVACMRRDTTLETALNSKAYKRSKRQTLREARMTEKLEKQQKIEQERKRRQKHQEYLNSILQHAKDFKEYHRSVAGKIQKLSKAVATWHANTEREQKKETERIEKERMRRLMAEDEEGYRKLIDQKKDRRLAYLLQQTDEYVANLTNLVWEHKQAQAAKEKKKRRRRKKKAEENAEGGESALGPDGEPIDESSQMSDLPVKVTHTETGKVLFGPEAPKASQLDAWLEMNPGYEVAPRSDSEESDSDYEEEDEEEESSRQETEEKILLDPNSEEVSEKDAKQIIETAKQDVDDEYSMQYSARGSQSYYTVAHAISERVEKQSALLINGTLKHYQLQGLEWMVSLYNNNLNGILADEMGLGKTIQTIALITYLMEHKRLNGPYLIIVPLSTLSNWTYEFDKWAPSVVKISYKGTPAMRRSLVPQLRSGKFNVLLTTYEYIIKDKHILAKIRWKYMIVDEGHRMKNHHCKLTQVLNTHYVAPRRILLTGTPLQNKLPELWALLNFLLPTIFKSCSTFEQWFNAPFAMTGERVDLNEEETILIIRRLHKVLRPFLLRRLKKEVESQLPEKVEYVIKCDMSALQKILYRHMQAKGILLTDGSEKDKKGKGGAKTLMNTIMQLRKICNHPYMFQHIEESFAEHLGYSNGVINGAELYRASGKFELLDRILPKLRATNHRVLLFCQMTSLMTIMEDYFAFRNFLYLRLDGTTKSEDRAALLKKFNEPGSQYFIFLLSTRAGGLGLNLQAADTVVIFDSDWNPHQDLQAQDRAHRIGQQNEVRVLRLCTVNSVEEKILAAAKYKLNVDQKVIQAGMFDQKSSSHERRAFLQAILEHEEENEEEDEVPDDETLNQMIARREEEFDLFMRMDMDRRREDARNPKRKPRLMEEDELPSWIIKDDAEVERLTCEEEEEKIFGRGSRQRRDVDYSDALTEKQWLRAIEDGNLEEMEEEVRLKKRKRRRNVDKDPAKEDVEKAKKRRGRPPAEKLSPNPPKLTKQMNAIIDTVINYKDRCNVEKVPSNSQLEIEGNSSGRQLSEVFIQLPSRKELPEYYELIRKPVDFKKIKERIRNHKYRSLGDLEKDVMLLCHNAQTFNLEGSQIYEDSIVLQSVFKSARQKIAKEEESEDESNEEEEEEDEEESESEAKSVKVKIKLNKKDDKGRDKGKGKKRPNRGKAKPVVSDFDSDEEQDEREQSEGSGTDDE
Procedure: The ATPase catalytic activity of BRM or BRG-1 was measured by an in vitro biochemical assay using ADP-Glo™ (Promega, V9102). The ADP-Glo™ kinase assay is performed in two steps once the reaction is complete. The first step is to deplete any unconsumed ATP in the reaction. The second step is to convert the reaction product ADP to ATP, which will be utilized by the luciferase to generate luminesce and be detected by a luminescence reader, such as Envision.
Then following addition of 5 μL of ADP-Glo™ Reagent provided in the kit, the reaction incubates at room temperature for 40 minutes. Then 10 μL of Kinase Detection Reagent provided in the kit is added to convert ADP to ATP, and the reaction incubates at room temperature for 60 minutes. Finally, luminescence measurement is collected with a plate-reading luminometer, such as Envision.
Regarding `CN(C)c1cccc(-c2ccc3cnc(CNC(=O)c4ccc5c(c4)[C@](C)(C#N)COC5)cc3n2)n1` [Compound 360], the “BRM Max % Inhibition” value is recorded as 99%.
On the same count and under the same terms, with `C[C@@]1(C#N)COCc2ccc(C(=O)NCc3cc4nc(-c5cccc(N6CCCC6=O)n5)ccc4cn3)cc21` [Compound 378] the figure was 100%; with `C[C@@]1(C#N)COCc2ccc(C(=O)NCc3cc4nc(-c5cncc(N6CC(F)(F)C6)n5)ccc4cn3)cc21` [Compound 404], 93%.
Same read-out and setting: to `C[C@@]1(C#N)COCc2ccc(C(=O)NCc3cc4c(nn3)CCN(c3cccc(N5CCC5)n3)C4)cc21` [Compound 234] belongs 96%; to `C[C@@]1(C#N)COCc2ccc(C(=O)NCc3cc4nc(N5CCCC5)ccc4cn3)cc21` [Compound 514], 95%; to `Cn1ncc2c(-c3ccc4cnc(CNC(=O)c5ccc6c(c5)[C@](C)(C#N)COC6)cc4n3)cccc21` [Compound 182], 99%.
Same read-out and setting: to `CN(C)C(=O)c1cccc(C#Cc2ccnc(CNC(=O)c3ccc4c(c3)[C@](C)(C#N)COC4)c2)c1` [Compound 84] belongs 89%; to `CC1c2cc(CNC(=O)c3ccc4c(c3)[C@](C)(C#N)COC4)ncc2CCN1c1cncc(C2CC2)n1` (stereo partly shown) [Compound 209], 89%.
As to `C[C@@]1(C#N)COCc2ccc(C(=O)NCc3cc4nc(-c5ccncc5)ccc4cn3)cc21` [Compound 451], the “BRM Max % Inhibition” value is on record as 93%.
Still for that read-out and setting: to `C[C@@]1(C#N)COCc2ccc(C(=O)NCc3cc(N4CCC(c5ccccc5)C4)ccn3)cc21` (stereo partly shown) [Compound 44] belongs 97%; to `C[C@@]1(C#N)COCc2ccc(C(=O)NCc3cc4nc(-n5cccc(C6CC6)c5=O)ccc4cn3)cc21` [Compound 282], 87%; to `Cn1cc(F)c2c(-c3ccc4cnc(CNC(=O)c5ccc6c(c5)[C@](C)(C#N)COC6)cc4n3)cccc21` [Compound 138], 101%.
`C[C@@]1(C#N)COCc2ncc(C(=O)NCc3cc4cc(-c5cncc(C6CC6)n5)ccc4cn3)cc21` [Compound 181]: the “BRM Max % Inhibition” value is 100%.

Staying with this experiment, now noted: BRM ATPase: IC50 (uM), 30 nM BRM, 400 μM ATP.
`CN(C)c1cccc(-c2ccc3cnc(CNC(=O)c4ccc5c(c4)[C@](C)(C#N)COC5)cc3n2)n1` [Compound 360] gave an IC50 of under 0.1 µM.
`C[C@@]1(C#N)COCc2ccc(C(=O)NCc3cc4nc(-c5cccc(N6CCCC6=O)n5)ccc4cn3)cc21` [Compound 378] displayed a concentration for half-maximal inhibition (IC50) of under 0.1 µM.
Still for that read-out and setting: to `C[C@@]1(C#N)COCc2ccc(C(=O)NCc3cc4nc(-c5cncc(N6CC(F)(F)C6)n5)ccc4cn3)cc21` [Compound 404] belongs 0.1 to 0.5 µM; to `C[C@@]1(C#N)COCc2ccc(C(=O)NCc3cc4c(nn3)CCN(c3cccc(N5CCC5)n3)C4)cc21` [Compound 234], 0.1 to 0.5 µM.
The compound `C[C@@]1(C#N)COCc2ccc(C(=O)NCc3cc4nc(N5CCCC5)ccc4cn3)cc21` [Compound 514] returned an IC50 of 0.1 to 0.5 µM.
With `Cn1ncc2c(-c3ccc4cnc(CNC(=O)c5ccc6c(c5)[C@](C)(C#N)COC6)cc4n3)cccc21` [Compound 182], the IC50 was under 0.1 µM.
Compound `CN(C)C(=O)c1cccc(C#Cc2ccnc(CNC(=O)c3ccc4c(c3)[C@](C)(C#N)COC4)c2)c1` [Compound 84] came in with an IC50 of 0.1 to 0.5 µM.
The same measure, in the same setting: to `CC1c2cc(CNC(=O)c3ccc4c(c3)[C@](C)(C#N)COC4)ncc2CCN1c1cncc(C2CC2)n1` (stereo partly shown) [Compound 209] belongs 0.1 to 0.5 µM; to `C[C@@]1(C#N)COCc2ccc(C(=O)NCc3cc4nc(-c5ccncc5)ccc4cn3)cc21` [Compound 451], 0.1 to 0.5 µM.
Same read-out and setting: to `C[C@@]1(C#N)COCc2ccc(C(=O)NCc3cc(N4CCC(c5ccccc5)C4)ccn3)cc21` (stereo partly shown) [Compound 44] belongs 0.1 to 0.5 µM.
Same read-out and setting: to `C[C@@]1(C#N)COCc2ccc(C(=O)NCc3cc4nc(-n5cccc(C6CC6)c5=O)ccc4cn3)cc21` [Compound 282] belongs 0.1 to 0.5 µM; to `Cn1cc(F)c2c(-c3ccc4cnc(CNC(=O)c5ccc6c(c5)[C@](C)(C#N)COC6)cc4n3)cccc21` [Compound 138], under 0.1 µM; to `C[C@@]1(C#N)COCc2ncc(C(=O)NCc3cc4cc(-c5cncc(C6CC6)n5)ccc4cn3)cc21` [Compound 181], under 0.1 µM.
